Measurements taken from US9975878B2, “Substituted triazine BMI-1 inhibitors” (PTC Therapeutics, Inc., priority 2013, dated 2018).

Tested on: Bmi-1 protein
Assay: Sandwich ELISA Assay: Bmi-1 protein level in HT-1080 cells treated with test compounds
Format: cell-based
In short: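 HT-1080 cells exposed to compounds (final DMSO 0.5%) for 40-48 h at 37° C, 5% CO2, then lysed. Bmi-1 quantified by sandwich ELISA (mouse anti-Bmi-1 capture, rabbit anti-Bmi-1 detection, HRP anti-rabbit, TMB), read at OD450 with OD570 reference, against recombinant GST-Bmi-1 standard curve (0-8000 pg/mL).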

Row | SMILES | EC50
1 | Cc1nc2ccccc2n1-c1cnnc(Nc2ccc(C(F)(F)F)cc2)n1 [Cpd 112, 5-(2-methyl-1H-benzimidazol-1-yl)-N-[4-(trifluoromethyl)phenyl]-1,2,4-triazin-3-amine] | 0.1 to 3 µM
2 | Nc1nc(Nc2ccc(C(F)(F)F)cc2)nc(-n2c(C(F)F)nc3cc(F)c(F)cc32)n1 [Cpd 114, 6-[2-(difluoromethyl)-5,6-difluoro-1H-benzimidazol-1-yl]-N-[4-(trifluoromethyl)phenyl]-1,3,5-triazine-2,4-diamine] | 0.1 to 3 µM
3 | CCc1nc2cc(F)c(F)cc2n1-c1nc(N)nc(Nc2ccc(C(F)(F)F)cc2)n1 [Cpd 116, 6-(2-ethyl-5,6-difluoro-1H-benzimidazol-1-yl)-N-[4-(trifluoromethyl)phenyl]-1,3,5-triazine-2,4-diamine] | 0.1 to 3 µM
4 | Nc1nc(Nc2ccc(OC(F)F)c(F)c2)nc(-n2c(C(F)F)nc3cc(F)c(F)cc32)n1 [Cpd 117, N-[4-(difluoromethoxy)-3-fluorophenyl]-6-[2-(difluoromethyl)-5,6-difluoro-1H-benzimidazol-1-yl]-1,3,5-triazine-2,4-diamine] | 0.1 to 3 µM
5 | Nc1nc(Nc2ccc(C(F)(F)F)cc2)nc(-n2c(CO)nc3ccccc32)n1 [Cpd 118, [1-(4-amino-6-{[4-(trifluoromethyl)phenyl]amino}-1,3,5-triazin-2-yl)-1H-benzimidazol-2-yl]methanol] | 0.1 to 3 µM
6 | N#CCc1nc2ccccc2n1-c1nc(N)nc(Nc2ccc(C(F)(F)F)cc2)n1 [Cpd 119, [1-(4-amino-6-{[4-(trifluoromethyl)phenyl]amino}-1,3,5-triazin-2-yl)-1H-benzimidazol-2-yl]acetonitrile] | 0.1 to 3 µM
7 | Nc1nc(Nc2ccc(OC(F)F)cc2)nc(-n2c(CO)nc3ccccc32)n1 [Cpd 120, [1-(4-amino-6-{[4-(difluoromethoxy)phenyl]amino}-1,3,5-triazin-2-yl)-1H-benzimidazol-2-yl]methanol] | 0.1 to 3 µM
8 | CSc1nc2ccccc2n1-c1nc(N)nc(Nc2ccc(OC(F)F)cc2)n1 [Cpd 121, N-[4-(difluoromethoxy)phenyl]-6-[2-(methylsulfanyl)-1H-benzimidazol-1-yl]-1,3,5-triazine-2,4-diamine] | 0.1 to 3 µM
9 | N#CCc1nc2ccccc2n1-c1nc(N)nc(Nc2ccc(OC(F)F)c(F)c2)n1 [Cpd 122, [1-(4-amino-6-{[4-(difluoromethoxy)-3-fluorophenyl]amino}-1,3,5-triazin-2-yl)-1H-benzimidazol-2-yl]acetonitrile] | 0.1 to 3 µM
10 | Cc1nn2ccccc2c1-c1nc(N)nc(Nc2ccc(OC(F)F)cc2)n1 [Cpd 123, N-[4-(difluoromethoxy)phenyl]-6-(2-methylpyrazolo[1,5-a]pyridin-3-yl)-1,3,5-triazine-2,4-diamine] | 0.1 to 3 µM
11 | CCc1nc2ccccc2n1-c1cnnc(Nc2ccc(C(F)(F)F)cc2)n1 [Cpd 124, 5-(2-ethyl-1H-benzimidazol-1-yl)-N-[4-(trifluoromethyl)phenyl]-1,2,4-triazin-3-amine] | 0.1 to 3 µM
12 | CCc1nc2ccc(F)cc2n1-c1cnnc(Nc2ccc(C(F)(F)F)cc2)n1 [Cpd 125, 5-(2-ethyl-6-fluoro-1H-benzimidazol-1-yl)-N-[4-(trifluoromethyl)phenyl]-1,2,4-triazin-3-amine] | 0.1 to 3 µM
13 | Cc1nc2ccc(F)cc2n1-c1cnnc(Nc2ccc(C(F)(F)F)cc2)n1 [Cpd 126, 5-(6-fluoro-2-methyl-1H-benzimidazol-1-yl)-N-[4-(trifluoromethyl)phenyl]-1,2,4-triazin-3-amine] | 0.1 to 3 µM
14 | CCCc1nc2ccccc2n1-c1nc(N)nc(Nc2ccc(C(F)(F)F)cc2)n1 [Cpd 127, 6-(2-propyl-1H-benzimidazol-1-yl)-N-[4-(trifluoromethyl)phenyl]-1,3,5-triazine-2,4-diamine] | 0.1 to 3 µM
15 | CCc1nn2ccccc2c1-c1nc(N)nc(Nc2ccc(C(F)(F)F)cc2)n1 [Cpd 128, 6-(2-ethylpyrazolo[1,5-a]pyridin-3-yl)-N-[4-(trifluoromethyl)phenyl]-1,3,5-triazine-2,4-diamine] | 0.1 to 3 µM
16 | CCc1nn2ccccc2c1-c1nc(N)nc(Nc2ccc(OC(F)F)cc2)n1 [Cpd 129, N-[4-(difluoromethoxy)phenyl]-6-(2-ethylpyrazolo[1,5-a]pyridin-3-yl)-1,3,5-triazine-2,4-diamine] | 0.1 to 3 µM
17 | Cc1nc2ccc(F)cc2n1-c1nncc(Nc2ccc(C(F)(F)F)cc2)n1 [Cpd 130, 3-(6-fluoro-2-methyl-1H-benzimidazol-1-yl)-N-[4-(trifluoromethyl)phenyl]-1,2,4-triazin-5-amine] | 0.1 to 3 µM
18 | CCc1nc2ccc(F)cc2n1-c1nncc(Nc2ccc(C(F)(F)F)cc2)n1 [Cpd 131, 3-(2-ethyl-6-fluoro-1H-benzimidazol-1-yl)-N-[4-(trifluoromethyl)phenyl]-1,2,4-triazin-5-amine] | 0.1 to 3 µM
19 | Fc1ccc2nc(C3CC3)n(-c3cnnc(Nc4ccc(C(F)(F)F)cc4)n3)c2c1 [Cpd 134, 5-(2-cyclopropyl-6-fluoro-1H-benzimidazol-1-yl)-N-[4-(trifluoromethyl)phenyl]-1,2,4-triazin-3-amine] | 0.1 to 3 µM

Further lines, results first:

Row | EC50 | SMILES
20 | 0.01 to 0.1 µM | Nc1nc(Nc2ccc(OC(F)F)cc2)nc(-n2c(C3CC3)nc3c(F)cccc32)n1 [Cpd 86, 6-(2-cyclopropyl-4-fluoro-1H-benzimidazol-1-yl)-N-[4-(difluoromethoxy)phenyl]-1,3,5-triazine-2,4-diamine]
21 | 0.01 to 0.1 µM | Nc1nc(Nc2ccc(OC(F)F)c(F)c2)nc(-n2c(C3CC3)nc3c(F)cccc32)n1 [Cpd 87, 6-(2-cyclopropyl-4-fluoro-1H-benzimidazol-1-yl)-N-[4-(difluoromethoxy)-3-fluorophenyl]-1,3,5-triazine-2,4-diamine]
22 | 0.01 to 0.1 µM | Nc1nc(Nc2ccc(C(F)(F)F)cc2)nc(-n2c(C3CC3)nc3c(F)cc(F)cc32)n1 [Cpd 88, 6-(2-cyclopropyl-4,6-difluoro-1H-benzimidazol-1-yl)-N-[4-(trifluoromethyl)phenyl]-1,3,5-triazine-2,4-diamine]
23 | 0.1 to 3 µM | Cc1nc2ccccc2n1-c1nc(N)nc(Nc2cccc(OC(F)F)c2)n1 [Cpd 93, N-[3-(difluoromethoxy)phenyl]-6-(2-methyl-1H-benzimidazol-1-yl)-1,3,5-triazine-2,4-diamine]
24 | 0.1 to 3 µM | Cc1nc2ccccc2n1-c1nncc(Nc2ccc(C(F)(F)F)cc2)n1 [Cpd 94, 3-(2-methyl-1H-benzimidazol-1-yl)-N-[4-(trifluoromethyl)phenyl]-1,2,4-triazin-5-amine]
25 | 0.1 to 3 µM | Cc1nc2c(F)cccc2n1-c1nc(N)nc(Nc2ccc(C(F)(F)F)cc2)n1 [Cpd 95, 6-(4-fluoro-2-methyl-1H-benzimidazol-1-yl)-N-[4-(trifluoromethyl)phenyl]-1,3,5-triazine-2,4-diamine]
26 | 0.01 to 0.1 µM | Cc1nc2c(F)cccc2n1-c1nc(N)nc(Nc2ccc(OC(F)F)cc2)n1 [Cpd 96, N-[4-(difluoromethoxy)phenyl]-6-(4-fluoro-2-methyl-1H-benzimidazol-1-yl)-1,3,5-triazine-2,4-diamine]
27 | 0.1 to 3 µM | Cc1nc2c(F)cccc2n1-c1nc(N)nc(Nc2ccc(OC(F)F)c(F)c2)n1 [Cpd 97, N-[4-(difluoromethoxy)-3-fluorophenyl]-6-(4-fluoro-2-methyl-1H-benzimidazol-1-yl)-1,3,5-triazine-2,4-diamine]
28 | 0.01 to 0.1 µM | CCc1nc2ccccc2n1-c1nncc(Nc2ccc(C(F)(F)F)cc2)n1 [Cpd 98, 3-(2-ethyl-1H-benzimidazol-1-yl)-N-[4-(trifluoromethyl)phenyl]-1,2,4-triazin-5-amine]
29 | 0.01 to 0.1 µM | Cc1nc2ccccc2n1-c1nncc(Nc2ccc(OC(F)F)cc2)n1 [Cpd 99, N-[4-(difluoromethoxy)phenyl]-3-(2-methyl-1H-benzimidazol-1-yl)-1,2,4-triazin-5-amine]
30 | 0.01 to 0.1 µM | CCc1nc2ccccc2n1-c1nncc(Nc2ccc(OC(F)F)cc2)n1 [Cpd 100, N-[4-(difluoromethoxy)phenyl]-3-(2-ethyl-1H-benzimidazol-1-yl)-1,2,4-triazin-5-amine]
31 | 0.01 to 0.1 µM | FC(F)(F)c1ccc(Nc2cnnc(-n3c(C4CC4)nc4ccccc43)n2)cc1 [Cpd 101, 3-(2-cyclopropyl-1H-benzimidazol-1-yl)-N-[4-(trifluoromethyl)phenyl]-1,2,4-triazin-5-amine]
32 | 0.01 to 0.1 µM | Nc1nc(Nc2ccc(OC(F)F)nc2)nc(-n2c(C(F)F)nc3ccccc32)n1 [Cpd 105, N-[6-(difluoromethoxy)pyridin-3-yl]-6-[2-(difluoromethyl)-1H-benzimidazol-1-yl]-1,3,5-triazine-2,4-diamine]
33 | 0.1 to 3 µM | Nc1nc(Nc2ccc(C(F)(F)F)cc2)nc(-n2c(CF)nc3ccccc32)n1 [Cpd 107, 6-[2-(fluoromethyl)-1H-benzimidazol-1-yl]-N-[4-(trifluoromethyl)phenyl]-1,3,5-triazine-2,4-diamine]
34 | 0.1 to 3 µM | Nc1nc(Nc2ccc(OC(F)F)nc2)nc(-n2c(CF)nc3ccccc32)n1 [Cpd 110, N-[6-(difluoromethoxy)pyridin-3-yl]-6-[2-(fluoromethyl)-1H-benzimidazol-1-yl]-1,3,5-triazine-2,4-diamine]
35 | 0.01 to 0.1 µM | FC(F)Oc1ccc(Nc2cnnc(-n3c(C4CC4)nc4ccccc43)n2)cc1 [Cpd 113, 3-(2-cyclopropyl-1H-benzimidazol-1-yl)-N-[4-(difluoromethoxy)phenyl]-1,2,4-triazin-5-amine]
36 | 0.01 to 0.1 µM | Nc1nc(Nc2ccc(OC(F)F)cc2)nc(-n2c(C(F)F)nc3cc(F)c(F)cc32)n1 [Cpd 115, N-[4-(difluoromethoxy)phenyl]-6-[2-(difluoromethyl)-5,6-difluoro-1H-benzimidazol-1-yl]-1,3,5-triazine-2,4-diamine]
37 | 0.01 to 0.1 µM | Fc1ccc2nc(C3CC3)n(-c3nncc(Nc4ccc(C(F)(F)F)cc4)n3)c2c1 [Cpd 132, 3-(2-cyclopropyl-6-fluoro-1H-benzimidazol-1-yl)-N-[4-(trifluoromethyl)phenyl]-1,2,4-triazin-5-amine]
38 | 0.01 to 0.1 µM | FC(F)(F)c1ccc(Nc2nncc(-n3c(C4CC4)nc4ccccc43)n2)cc1 [Cpd 133, 5-(2-cyclopropyl-1H-benzimidazol-1-yl)-N-[4-(trifluoromethyl)phenyl]-1,2,4-triazin-3-amine]
